Values quoted from earlier work in patent publication US7009061B2, “Diterpene compounds” (Nihon University, priority 2003, dated 2006).

Tested on: P-388 cells

Molecule	depressive activities against P-388 cells in vivo
CCCCCCCCCCCCCCCC(=O)OCC1=C[C@@H]2C(=O)[C@]3(C=C(C)[C@H](OC(=O)C(C)C(C)C)[C@@]3(O)[C@@H]1O)[C@H](C)C[C@]1(OC(=O)CCCCCCCCCCC)[C@H]2C1(C)C (some centres unmarked) [kansuiphorin A]	depressive activities
kanusiphorin B	depressive activities
